Measured values: US12258338B2, “Modulators of the integrated stress response pathway” (EVOTEC INTERNATIONAL GMBH, priority 2019, dated 2025)
Values after ≈ are worked out from the molar mass of the structure shown. Read-outs that look alike come from different tables or passages of the source.

Experiments:
[1] = Log D 7.4 assay (1-octanol / phosphate buffer pH 7.4); assay type: physicochemical
Experimental: Phosphate buffer (1 M) was diluted to 20 mM with deionised water and adjusted to pH 7.4 (±0.05) with phosphoric acid or sodium hydroxide. A 1:1 mixture of phosphate buffer (20 mM) and 1-octanol were saturated by tumbling overnight after which time the two phases were separated. Using an automated liquid handler the following procedure was carried out: 20 mM DMSO stocks of assay and control compounds were reformatted to provide cassettes of 4 compounds per well giving a final concentration of 5 mM per compound. In duplicate 5 μL of the cassetted compounds were added to 495 μL 1-octanol (saturated with buffer) followed by 495 μL of buffer (saturated with 1-octanol) in a 96-well plate giving final incubation concentrations of 25 μM (50 μM max concentration in either layer if all compound partitioned into a single matrix). The layers were mixed by aspirating and dispensing the buffer and octanol layers into one another three times. The plate was sealed, shaken for 120 minutes and then centrifuged at 25° C. for 15 min at 4600 rpm. The 1-octanol and buffer layer were sampled separately (ensuring no cross contamination) and the respective samples diluted with 60:40 ACN:0.1 M ammonium acetate pH 7.4 (containing external standard; Sulfisoxazole, assay concentration 120 nM) to obtain final theoretical maximum concentrations of the 1-octanol layer of 0.025 μM, 0.5 μM and a buffer layer concentration of 0.5 μM. The second buffer sample was prepared by diluting the assay buffer layer with acetonitrile (containing external standard; Sulfisoxazole, assay concentration 120 nM) to give a theoretical maximum concentration of 20 μM. The analytical samples were analysed by LC-MS/MS and the Log D calculated as shown:
[formula] Where PA=Peak area and ES=External standard

[2] = Thermodynamic (Equilibrium) solubility in selected buffer; assay type: physicochemical; settings: for solubility: aqueous buffer, thermodynamic from solid
Procedure, shortened: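 Powdered compound at 1 mg/mL target in 50 mM phosphate pH 2.0, 50 mM acetate pH 5.5 or 50 mM phosphate pH 7.4, stirred overnight at r.t. in the dark, then 0.45 μm filtered. Filtrate quantified by UPLC-UV peak area against a 0.8 mg/mL DMSO reference.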

[3] = acetate buffer 50 mM, pH 5, Table 24, read-out: Solubility (μg/mL) pH 5
[4] = acetate buffer 50 mM, pH 5.5, Table 25, read-out: Solubility (μg/mL) pH 5.5
[5] = phosphate buffer 50 mM, pH 7.4, Table 24, read-out: Solubility (μg/mL) pH 7.4

**Q.** Which logD at 120 min [1] does the source give for `O=C(COc1ccc(Cl)c(F)c1)N[C@H]1CC[C@H](c2nnc([C@H]3C[C@@H](OC(F)(F)F)C3)o2)NC1` [Example 50, 2-(4-chloro-3-fluorophenoxy)-N-[(3S,6R)-6-{5-[(1s,3s)-3-(trifluoromethoxy)cyclobutyl]-1,3,4-oxadiazol-2-yl}piperidin-3-yl]acetamide] here?
**A.** 2.7

**Q.** And the solubility [2, 3]?
**A.** 78 µg/mL (≈ 158 µM)

**Q.** What about the solubility [2, 4] of the same compound?
**A.** 78 µg/mL (≈ 158 µM)

**Q.** What about the “Solubility (μg/mL) pH 2” value ([2]; pH 2, Table 24) of the same compound?
**A.** quant.^#

**Q.** And the “Solubility (μg/mL) pH 2.0” value ([2]; pH 2.0, Table 25)?
**A.** quant.^#

**Q.** And the solubility [2, 5]?
**A.** 63 µg/mL (≈ 128 µM)

**Q.** What does the source list for `O=C(COc1ccc(Cl)c(F)c1)N[C@H]1CC[C@H](c2nnc(COC(F)(F)F)o2)NC1` [Example 61, 2-(4-chloro-3-fluorophenoxy)-N-[(3S,6R)-6-(5-[(trifluoromethoxy)methyl]-1,3,4-oxadiazol-2-yl}piperidin-3-yl]acetamide]?
**A.** logD at 120 min [1]: 2.3; solubility [2, 3]: 156 µg/mL (≈ 345 µM); solubility [2, 4]: 156 µg/mL (≈ 345 µM); solubility ([2]; phosphate buffer 50 mM, pH 2, Table 24, read-out: Solubility (μg/mL) pH 2): 907 µg/mL (≈ 2000 µM); solubility [2, 5]: 90 µg/mL (≈ 199 µM)
